# Active and inactive are the calls of the source. No cut-off for these calls is given here.
# Columns and labels:
# Type in all cases: functional
# CCRF-CEM = assay: Growth inhibition of human CCRF-CEM cells after 48 hrs by cell counting analysis; settings: at 10 µM
# HL-60 = assay: Growth inhibition of human HL60 cells after 48 hrs by cell counting analysis; settings: at 10 µM
# K562 = assay: Growth inhibition of human K562 cells after 48 hrs by cell counting analysis; settings: at 10 µM
# RPMI-8226 = assay: Growth inhibition of human RPMI8226 cells after 48 hrs by cell counting analysis; settings: at 10 µM
# SR = assay: Growth inhibition of human SR cells after 48 hrs by cell counting analysis; settings: at 10 µM
# A549 = assay: Growth inhibition of human A549 cells after 48 hrs by cell counting analysis; settings: at 10 µM
# EKVX = assay: Growth inhibition of human EKVX cells after 48 hrs by cell counting analysis; settings: at 10 µM
# HOP-62 = assay: Growth inhibition of human HOP62 cells after 48 hrs by cell counting analysis; settings: at 10 µM
# HOP-92 = assay: Growth inhibition of human HOP92 cells after 48 hrs by cell counting analysis; settings: at 10 µM
# NCI-H226 = assay: Growth inhibition of human NCI-H226 cells after 48 hrs by cell counting analysis; settings: at 10 µM
# NCI-H23 = assay: Growth inhibition of human NCI-H23 cells after 48 hrs by cell counting analysis
# [1] = Growth inhibition of human NCI-322M cells after 48 hrs by cell counting analysis; settings: at 10 µM
# NCI-H522 = assay: Growth inhibition of human NCI-H522 cells after 48 hrs by cell counting analysis; settings: at 10 µM
# HCC 2998 = assay: Growth inhibition of human HCC2998 cells after 48 hrs by cell counting analysis; settings: at 10 µM
# HCT-15 = assay: Growth inhibition of human HCT15 cells after 48 hrs by cell counting analysis; settings: at 10 µM
# HT-29 = assay: Growth inhibition of human HT-29 cells after 48 hrs by cell counting analysis; settings: at 10 µM
# KM12 = assay: Growth inhibition of human KM12 cells after 48 hrs by cell counting analysis; settings: at 10 µM
# SW-620 = assay: Growth inhibition of human SW620 cells after 48 hrs by cell counting analysis; settings: at 10 µM
# SF-268 = assay: Growth inhibition of human SF268 cells after 48 hrs by cell counting analysis; settings: at 10 µM
# SF-295 = assay: Growth inhibition of human SF295 cells after 48 hrs by cell counting analysis; settings: at 10 µM
# SF-539 = assay: Growth inhibition of human SF539 cells after 48 hrs by cell counting analysis; settings: at 10 µM
# SNB-19 = assay: Growth inhibition of human SNB19 cells after 48 hrs by cell counting analysis; settings: at 10 µM
# SNB-75 = assay: Growth inhibition of human SNB75 cells after 48 hrs by cell counting analysis; settings: at 10 µM
# U-251 = assay: Growth inhibition of human U251 cells after 48 hrs by cell counting analysis; settings: at 10 µM
# LOX IMVI = assay: Growth inhibition of human LOXIMVI cells after 48 hrs by cell counting analysis; settings: at 10 µM
# Malme-3M = assay: Growth inhibition of human MALME-3M cells after 48 hrs by cell counting analysis; settings: at 10 µM
# M14 = assay: Growth inhibition of human M14 cells after 48 hrs by cell counting analysis; settings: at 10 µM
# MDA-MB-435 = assay: Growth inhibition of human MDA-MB-435 cells after 48 hrs by cell counting analysis; settings: at 10 µM
# SK-MEL-2 = assay: Growth inhibition of human SK-MEL-2 cells after 48 hrs by cell counting analysis; settings: at 10 µM
# SK-MEL-28 = assay: Growth inhibition of human SK-MEL-28 cells after 48 hrs by cell counting analysis; settings: at 10 µM
# SK-MEL-5 = assay: Growth inhibition of human SK-MEL-5 cells after 48 hrs by cell counting analysis; settings: at 10 µM
# UACC-257 = assay: Growth inhibition of human UACC257 cells after 48 hrs by cell counting analysis; settings: at 10 µM
# UACC-62 = assay: Growth inhibition of human UACC62 cells after 48 hrs by cell counting analysis; settings: at 10 µM
# IGROV-1 = assay: Growth inhibition of human IGROV1 cells after 48 hrs by cell counting analysis; settings: at 10 µM
# OVCAR-3 = assay: Growth inhibition of human OVCAR3 cells after 48 hrs by cell counting analysis; settings: at 10 µM
# OVCAR-4 = assay: Growth inhibition of human OVCAR4 cells after 48 hrs by cell counting analysis; settings: at 10 µM
# OVCAR-5 = assay: Growth inhibition of human OVCAR5 cells after 48 hrs by cell counting analysis; settings: at 10 µM
# OVCAR-8 = assay: Growth inhibition of human OVCAR8 cells after 48 hrs by cell counting analysis; settings: at 10 µM
# [2] = Growth inhibition of human NCI-ADR-RES cells after 48 hrs by cell counting analysis; settings: at 10 µM
# SK-OV-3 = assay: Growth inhibition of human SKOV3 cells after 48 hrs by cell counting analysis; settings: at 10 µM
# ACHN = assay: Growth inhibition of human ACHN cells after 48 hrs by cell counting analysis; settings: at 10 µM
# CAKI-1 = assay: Growth inhibition of human Caki1 cells after 48 hrs by cell counting analysis; settings: at 10 µM
# RXF 393 = assay: Growth inhibition of human RXF393 cells after 48 hrs by cell counting analysis; settings: at 10 µM
# SN12C = assay: Growth inhibition of human SN12C cells after 48 hrs by cell counting analysis; settings: at 10 µM
# TK-10 = assay: Growth inhibition of human TK10 cells after 48 hrs by cell counting analysis
# UO-31 = assay: Growth inhibition of human UO31 cells after 48 hrs by cell counting analysis; settings: at 10 µM
# PC-3 = assay: Growth inhibition of human PC3 cells after 48 hrs by cell counting analysis; settings: at 10 µM
# MCF7 = assay: Growth inhibition of human MCF7 cells after 48 hrs by cell counting analysis; settings: at 10 µM
# MDA-MB-231 = assay: Growth inhibition of human MDA-MB-231 cells after 48 hrs by cell counting analysis; settings: at 10 µM
# BT-549 = assay: Growth inhibition of human BT549 cells after 48 hrs by cell counting analysis; settings: at 10 µM
# T47D = assay: Growth inhibition of human T47D cells after 48 hrs by cell counting analysis; settings: at 10 µM
# MDA-MB-468 = assay: Growth inhibition of human MDA-MB-468 cells after 48 hrs by cell counting analysis
# [3] = Antiproliferative activity against human leukemia cells after 48 hrs by cell counting analysis
# [4] = Antiproliferative activity against human non-small cell lung cancer cells after 48 hrs by cell counting analysis; settings: Cancer cell lines
# [5] = Antiproliferative activity against human colon cancer cells after 48 hrs by cell counting analysis; settings: Cancer cell lines
# [6] = Antiproliferative activity against human CNS cancer cells after 48 hrs by cell counting analysis; settings: Cancer cell lines
# [7] = Antiproliferative activity against human melanoma cells after 48 hrs by cell counting analysis
# [8] = Antiproliferative activity against human ovarian cancer cells after 48 hrs by cell counting analysis; settings: Cancer cell lines
# [9] = Antiproliferative activity against human renal cancer cells after 48 hrs by cell counting analysis; settings: Cancer cell lines
# [10] = Antiproliferative activity against human prostate cancer cells after 48 hrs by cell counting analysis; settings: Cancer cell lines
# [11] = Antiproliferative activity against human breast cancer cells after 48 hrs by cell counting analysis; settings: Cancer cell lines
# MOLT-4 = assay: Growth inhibition of human MOLT4 cells after 48 hrs by cell counting analysis; settings: at 10 µM
# HCT-116 = assay: Growth inhibition of human HCT116 cells after 48 hrs by cell counting analysis; settings: at 10 µM
# [12] = read-out: LC50 (the source's name)
compound,measurement,setting,value
Cc1ccc(-c2csc(NC(=O)CCCl)n2)cc1,growth inhibition (GI),CCRF-CEM,88.3%
same,growth inhibition (GI),HL-60,41.4%
same,growth inhibition (GI),K562,21.1%
same,growth inhibition (GI),RPMI-8226,80.9%
same,growth inhibition (GI),SR,88.5%
same,growth inhibition (GI),A549,77.3%
same,growth inhibition (GI),EKVX,50.3%
same,growth inhibition (GI),HOP-62,16.2%
same,growth inhibition (GI),HOP-92,50.5%
same,growth inhibition (GI),NCI-H226,22%
same,growth inhibition (GI),NCI-H23,Active
same,growth inhibition (GI),[1],55.9%
same,growth inhibition (GI),NCI-H522,41%
same,growth inhibition (GI),HCC 2998,22.5%
same,growth inhibition (GI),HCT-15,25.9%
same,growth inhibition (GI),HT-29,21%
same,growth inhibition (GI),KM12,82.4%
same,growth inhibition (GI),SW-620,65.2%
same,growth inhibition (GI),SF-268,46.3%
same,growth inhibition (GI),SF-295,30.2%
same,growth inhibition (GI),SF-539,25.2%
same,growth inhibition (GI),SNB-19,73.1%
same,growth inhibition (GI),SNB-75,34.6%
same,growth inhibition (GI),U-251,48.5%
same,growth inhibition (GI),LOX IMVI,45.1%
same,growth inhibition (GI),Malme-3M,29.1%
same,growth inhibition (GI),M14,56.1%
same,growth inhibition (GI),MDA-MB-435,36.9%
same,growth inhibition (GI),SK-MEL-2,54.2%
same,growth inhibition (GI),SK-MEL-28,31%
same,growth inhibition (GI),SK-MEL-5,16.6%
same,growth inhibition (GI),UACC-257,41.3%
same,growth inhibition (GI),UACC-62,41.8%
same,growth inhibition (GI),IGROV-1,63.1%
same,growth inhibition (GI),OVCAR-3,45.3%
same,growth inhibition (GI),OVCAR-4,81.5%
same,growth inhibition (GI),OVCAR-5,29.3%
same,growth inhibition (GI),OVCAR-8,60.6%
same,growth inhibition (GI),[2],55.8%
same,growth inhibition (GI),SK-OV-3,63%
same,growth inhibition (GI),ACHN,45.1%
same,growth inhibition (GI),CAKI-1,55.6%
same,growth inhibition (GI),RXF 393,43.8%
same,growth inhibition (GI),SN12C,33.2%
same,growth inhibition (GI),TK-10,Active
same,growth inhibition (GI),UO-31,61.3%
same,growth inhibition (GI),PC-3,69.5%
same,growth inhibition (GI),MCF7,65.9%
same,growth inhibition (GI),MDA-MB-231,53.5%
same,growth inhibition (GI),BT-549,72.3%
same,growth inhibition (GI),T47D,55.2%
same,growth inhibition (GI),MDA-MB-468,Active
same,GI50,[3],2 µM
same,TGI,[3],21.5 µM
same,CC50,[3]; [12],> 100 µM
same,GI50,[4],6.3 µM
same,TGI,[4],20.3 µM
same,CC50,[4]; [12],61.5 µM
same,GI50,[5],3.2 µM
same,TGI,[5],11.9 µM
same,CC50,[5]; [12],39.2 µM
same,GI50,[6],4.8 µM
same,TGI,[6],17.6 µM
same,CC50,[6]; [12],50.2 µM
same,GI50,[7],4.2 µM
same,TGI,[7],13.4 µM
same,CC50,[7]; [12],44.3 µM
same,GI50,[8],4.8 µM
same,TGI,[8],31.3 µM
same,CC50,[8]; [12],61.1 µM
same,GI50,[9],2.8 µM
same,TGI,[9],12.5 µM
same,CC50,[9]; [12],39.3 µM
same,GI50,[10],3.8 µM
same,TGI,[10],16.8 µM
same,CC50,[10]; [12],63.4 µM
same,GI50,[11],3.3 µM
same,TGI,[11],32.3 µM
same,CC50,[11]; [12],62.1 µM
same,growth inhibition (GI),MOLT-4,43.3%
same,growth inhibition (GI),HCT-116,46.2%

# — ChEMBL document CHEMBL2150993, “Substituted thiazoles VII. Synthesis and antitumor activity of certain 2-(substituted amino)-4-phenyl-1,3-thiazole analogs” (2012)
